Measurements as given in patent US6312703A, “Compressed lecithin preparations” (Lecigel, LLC, priority 1999, dated 2001).

Legend:
[1] = tested on: LDL cholesterol; settings: 60 hypercholesterolemic patients; Gurevich et al.; cited from earlier work
[2] = tested on: serum cholesterol; test: Cholesterol lowering in hamsters fed LCP, Lescol or the combination, bled after two weeks; assay type: in vivo, Golden Syrian hamsters; settings: diet with 2% LCP and/or 0.01% Lescol
Protocol: A study was performed to compare the effects of cholesterol reduction using the 2% LCP alone, 0.01% Lescol (a HMG CoA reductase inhibitor) alone, and a combination of 0.01% Lescol mixed with the phospholipids and extruded to create the LCP. The dosage was administered to Golden Syrian hamsters which were bled after two weeks to determine the cholesterol lowering effects.

Row | Structure (SMILES) | Lovastatin dose required to reduce LDL cholesterol level to a value of 130 [1] | HDL [2] | Non HDL [2] | Total Cholesterol [2]
1 | CC[C@H](C)C(=O)O[C@H]1C[C@@H](C)C=C2C=C[C@H](C)[C@H](CC[C@@H]3C[C@@H](O)CC(=O)O3)[C@H]21 [Lovastatin] | 40 mg/day |  |  | 
2 | CC(C)n1c(/C=C/[C@@H](O)C[C@@H](O)CC(=O)O)c(-c2ccc(F)cc2)c2ccccc21 (racemic) [Lescol] |  | 1.77 ± 0.16 | 1.61 ± 0.63 | 3.37 ± 0.67
